Reference: US20220226369A1, “ETHANOL HARDENER AND USE THEREOF” (priority 2019, published 2022)

How the values were obtained:
rabbit ear vein = assay: Embolic effect in rabbit ear vein; type: in vivo, rabbits; conditions: 0.1 mL injected, after one-month recovery, India ink
Description: Sixty healthy male rabbits with body weight of 2.5±0.2 kg were selected and divided into 6 groups of 10. The rabbits were anesthetized with a 3% sodium pentobarbital solution by intraperitoneal injection at 0.8 mL/kg. An anticoagulated and disinfected PE-8 catheter (0.20 mm×0.36 mm) was inserted into the distal end of the ear vein, until the end of the catheter reached the midpoint of the ear vein. The in-vitro end of the catheter was connected with a 1-mL syringe through a cannula.
0.1 mL of each of the sclerosing agents of various embodiments with different components was injected at a constant speed through the PE-8 catheter. After 30 seconds, the catheter was slowly and gently withdrawn, and a cotton pad was used for hemostasis. Both left and right ears of the animals were treated with the same procedures. The animals after sclerosing treatment were accommodate in individual cages. After a one-month recovery period, after visual inspection, a normal saline containing India ink was slowly injected at the distal end of the ear vein, so as to observe and record whether the blood vessels were completely embolized. The embolization ratio in each group was recorded (Table 2).

[1] = Viscosity test by capillary viscometer; type: physicochemical; conditions: 20° C.
Description: The viscosity of Examples 1, 5 and 7 and ethanol was measured by a capillary viscometer at an ambient temperature of 20° C. The capillary diameter was 0.5-0.6 mm and the viscometer constant was 0.005085 mm^2/s^2. The time difference of liquid passing through the capillary was recorded.
Viscosity=time difference×viscometer constant

- Time difference ([1]; capillary diameter 0.5-0.6 mm): 245 s
- Viscosity ([1]; viscometer constant 0.005085 mm^2/s^2): 1.25 mm^2/s
SMILES: CCO [Ethanol, ethanol]
- Ratio of completely embolized vessels (rabbit ear vein): 60% (12/20)
